According to PMC6366411, “Novel 2-indolinones containing a sulfonamide moiety as selective inhibitors of candida β-carbonic anhydrase enzyme” (Journal of Enzyme Inhibition and Medicinal Chemistry, 2019):

These compounds were tested against T1, CgNce103 (Nakaseomyces glabratus, UniProt Q6FTL6) (assay: stopped-flow CO2 hydration assay).
T1 construct: gene NCE103; enzyme preparation, host and tags not described
T1 sequence (Q6FTL6 1-219): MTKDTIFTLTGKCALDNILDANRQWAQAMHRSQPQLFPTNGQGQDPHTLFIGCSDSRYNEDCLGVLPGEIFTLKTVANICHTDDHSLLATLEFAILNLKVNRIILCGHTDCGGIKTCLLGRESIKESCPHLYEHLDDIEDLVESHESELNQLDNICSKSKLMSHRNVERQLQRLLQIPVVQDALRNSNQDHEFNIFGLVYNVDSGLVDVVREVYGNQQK
Type: biochemical
`NS(=O)(=O)c1ccc(NC(=S)N/N=C2\C(=O)Nc3ccccc32)cc1` [4a, 1H-indole-2,3-dione 3-[N-(4-sulfamoylphenyl)thiosemicarbazone], R = H] gave a Ki of 63.9 nM. Compound `Cc1ccc2c(c1)/C(=N/NC(=S)Nc1ccc(S(N)(=O)=O)cc1)C(=O)N2` [4b, 1H-indole-2,3-dione 3-[N-(4-sulfamoylphenyl)thiosemicarbazone], R = 5-CH3] has a Ki of 54 nM. Work on `NS(=O)(=O)c1ccc(NC(=S)N/N=C2\C(=O)Nc3ccc(OC(F)(F)F)cc32)cc1` [4c, 1H-indole-2,3-dione 3-[N-(4-sulfamoylphenyl)thiosemicarbazone], R = 5-OCF3] yielded a Ki of 53.7 nM. For `NS(=O)(=O)c1ccc(NC(=S)N/N=C2\C(=O)Nc3ccc(F)cc32)cc1` [4d, 1H-indole-2,3-dione 3-[N-(4-sulfamoylphenyl)thiosemicarbazone], R = 5-F], the Ki was 34.7 nM. For `NS(=O)(=O)c1ccc(NC(=S)N/N=C2\C(=O)Nc3ccc(Cl)cc32)cc1` [4e, 1H-indole-2,3-dione 3-[N-(4-sulfamoylphenyl)thiosemicarbazone], R = 5-Cl], the Ki was 41.3 nM. `NS(=O)(=O)c1ccc(NC(=S)N/N=C2\C(=O)Nc3ccc(Br)cc32)cc1` [4f, 1H-indole-2,3-dione 3-[N-(4-sulfamoylphenyl)thiosemicarbazone], R = 5-Br] was tested, and the Ki was 51.6 nM. For `NS(=O)(=O)c1ccc(NC(=S)N/N=C2\C(=O)Nc3ccc(I)cc32)cc1` [4g, 1H-indole-2,3-dione 3-[N-(4-sulfamoylphenyl)thiosemicarbazone], R = 5-I], the Ki was 19.8 nM. `NS(=O)(=O)c1ccc(NC(=S)N/N=C2\C(=O)Nc3ccc(S(=O)(=O)O)cc32)cc1` [4h, 1H-indole-2,3-dione 3-[N-(4-sulfamoylphenyl)thiosemicarbazone], R = 5-SO3Na] gave a Ki of 19.8 nM. With `NS(=O)(=O)c1ccc(NC(=S)N/N=C2\C(=O)Nc3ccc([N+](=O)[O-])cc32)cc1` [4i, 1H-indole-2,3-dione 3-[N-(4-sulfamoylphenyl)thiosemicarbazone], R = 5-NO2] the Ki was 42.1 nM. `NS(=O)(=O)c1ccc(NC(=S)N/N=C2\C(=O)Nc3c(F)cccc32)cc1` [4j, 1H-indole-2,3-dione 3-[N-(4-sulfamoylphenyl)thiosemicarbazone], R = 7-F] showed a Ki of 15 nM. `NS(=O)(=O)c1ccc(NC(=S)N/N=C2\C(=O)Nc3c(Cl)cccc32)cc1` [4k, 1H-indole-2,3-dione 3-[N-(4-sulfamoylphenyl)thiosemicarbazone], R = 7-Cl] showed a Ki of 12.8 nM. `NS(=O)(=O)c1ccc(NC(=S)N/N=C2\C(=O)Nc3c(Cl)cc(Cl)cc32)cc1` [4l, 1H-indole-2,3-dione 3-[N-(4-sulfamoylphenyl)thiosemicarbazone], R = 5,7-diCl] showed a Ki of 6.4 nM. `NS(=O)(=O)c1ccc(NC(=S)N/N=C2\C(=O)Nc3c(Br)cc(Br)cc32)cc1` [4m, 1H-indole-2,3-dione 3-[N-(4-sulfamoylphenyl)thiosemicarbazone], R = 5,7-diBr] showed a Ki of 46.6 nM.
